Structures are written as SMILES. Values joined by “and” are separate entries in the source; they are usually repeats but may differ in a detail not shown here. Equal entries are not always repeated.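 Method: 48-hour compound exposure of cells in 96-well plates, five concentrations, linear interpolation of endpoints. GI50: concentration for 50% inhibition of growth. TGI denotes the concentration required for complete inhibition of growth.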

From PubChem BioAssay (NCI) come the findings set out here.

Common to all, as to experiment: inhibition of tumour cell growth, NCI panel, 48 h
For assay [1], the system named is HCC-2998 colon.
Assay [2] relates to DMS 273 small cell lung.
The subject of assay [3] is M19-MEL melanoma.
Assay [4] concerns CCRF-CEM leukemia.
Assay [5] deals with DMS 114 small cell lung.
The subject of assay [6] is OVCAR-8 ovarian.
The subject of assay [7] is T-47D breast.
In assay [8] the test system is KM20L2 colon.
For assay [9], the system named is SK-MEL-28 melanoma.
For assay [10], the system named is RPMI-8226 leukemia.
Assay [11] has as its system BT-549 breast.
Assay [12] has as its system SN12C renal.

As for `COCC(=O)OC1CCn2c1nc1c2C(=O)C(C)=C(NC(C)=O)C1=O` (stereo unspecified), the TGI in assay [1] is 28.7 µM; in assay [2], 33.6 µM; in assay [3], 25.4 µM; in assay [4] it was 1.58 µM and 8.85 µM; in assay [5], 5.48 µM; in assay [6], 12 µM. In addition, the TGI is 5.51 µM and 2.68 µM in [7]; 44.3 µM in [8]; 28.6 µM in assay [9]; 4.76 µM and 9.5 µM in [10]; 24.4 µM in [11]; 18.9 µM in assay [12]. The GI50 in assay [4] was 0.262 µM; in assay [6], 2.92 µM; in assay [7] it was 1.03 µM; in assay [12], 4.62 µM.
As for `COc1cc(CCCOC2OC(COC3OCC(O)C(O)C3O)C(O)C(O)C2O)cc2cc(-c3ccc4c(c3)OCO4)oc12` (stereo unspecified), the TGI in [1] was > 98.4 µM; in assay [2], > 175 µM; in [3], > 175 µM; in assay [4], > 69.7 µM; in assay [5], > 175 µM; in assay [6], 109 µM. The TGI is > 175 µM in assay [8], > 175 µM in assay [9], > 175 µM in [10] and 99.5 µM in assay [12].
